Measured values taken from patent US20120035187A1 (priority 2009, published 2012).

Tests used:
[1] = test system: hamsters with cerebellar ataxia; experiment: Rotarod test in hamsters with cerebellar ataxia; assay type: in vivo, hamster; conditions: hamster with cerebellar ataxia; agent of Example 1, 0.5 ml/hamster intraperitoneally once a day for 56 days
Excerpt: Since NK-4 was confirmed to have a neurodegenerative inhibitory action in Experiment 1, hamsters with cerebellar ataxia (cerebellar ataxia is called “cerebellar A” and hamsters with cerebellar ataxia are called “hamsters with cerebellar A”, hereinafter) as a suitable model for human neurodegenerative diseases (e.g., spinal cerebellar degeneration) were subjected to examine the influence of NK-4 administration on their behaviors and brain tissues. Twenty-five hamsters with natural mutation (Nna1 inhibition), which are known to lose Purkinje's cells after three-weeks of age and then induce a spontaneous onset of kinetic motor ataxia after seven-weeks of age (see Akita K. et al., “J. Neurogenetics”, Vol. 21, pp. 19-29, 2007), had been fed at Hayashibara Biochemical Laboratories., Inc., Okayama, Japan, were randomly allocated to the test groups 1 to 5, five heads in each group, as shown in Table 2. Prior to the onset of cerebellar A (at three-weeks of age), PBS was started to administer to the hamsters in the test group 1 at a dose of 10 ml/kg/day. Prior to the onset of cerebellar A (at three-weeks of age), NK-4 was started to be administered to the hamsters in the test groups 2 to 4 at a daily dose of 20 μg/kg, 100 μg/kg or 500 μg/kg. “IGF-1, human, a product name of insulin-like growth factor, commercialized by Assaypro LLC, MO, USA. These administered ingredients were intraperitoneally administered daily to hamsters once a day up to 10-weeks of age. The degree of symptom of cerebellar A and the improvement effect on the symptom by NK-4 were evaluated with an index of improvement in motor coordination of hamsters by conducting once a week the later described rotarod test and the slant tolerance test. At the age of 10-weeks, the hamsters were subjected to counting the falling down frequency and extracted their brains, which were then histologically evaluated. In parallel, the concentration of glutamic acid in the bloods and cerebrospinal fluids (CSF) of the hamsters was assayed. As a test group 6, five normal hamsters, with the same age as the hamsters with cerebellar A used in the test groups 1 to 5, were provided and tested similarly as the hamsters with cerebellar A in such a manner of intraperitoneally administering PBS to them at a dose of 10 ml/kg/day once a day up to 10-weeks of age.
As an index for coordinated movement, it was used a duration time of hamster's movement to staying on a rotarod by locomotion in synchronization with the turn of the rotarod; placing a hamster on an apparatus with a rotarod (having a diameter of 60 mm, prepared by Hayashibara Biochemical Laboratories, Inc., Okayama, Japan), turning at a constant rate of six rpm, and measuring the time until the hamster falls down from the rotarod (see Fernandez et al., “Proc. Natl. Acad. Sci. USA”, Vol. 95, pp. 1253-1258, 1998). The test was repeated six times for each hamster, where five-times of tests starting from the initiation of the test were made as a preliminary examination, and the time until each hamster fell down from the rotarod (called “falling time”, hereinafter) was measured, followed by averaging the falling times for each group consisting of five heads. The falling time was measured until 180 seconds. Based on the results, the relationship between the age and the falling time for each hamster with cerebellar A (test group 1) administered with PBS was graphed. […]
Similarly as in Experiment 2, 130 hamsters with cerebellar ataxia, born within the same week and 3-weeks of age, were randomly divided into 13 groups, consisting of 10 hamsters, respectively. […]

PC12-HS cells = experiment: Evaluation B: neurite-outgrowth action in presence of NGF; assay type: cell-based, rat; conditions: for Evaluation B: Neurite-outgrowth action: 50 μl of 400 ng/ml test sample solution per well + NGF final 5 ng/ml, 3 days
[2] = test system: ICR mice administered with amyloid β fragment; experiment: Novel object recognition test, mouse administered with amyloid β fragment, agents of Example 1; assay type: in vivo; parameters: key: (novel − memorized seeking time)/(novel + memorized seeking time); conditions: agent of Example 1, 0.3 ml/head intraperitoneally once a day up to the 8th day
Experimental: One hundred and thirty ICR mice (commercialized by Charles Liver Laboratories Japan Inc., Kanagawa, Japan) were randomly divided into 13 groups, consisting of 10 mice in each group. Amyloid β fragment, represented by an amino acid sequence of SEQ ID NO: 1, used in Experiment 3 was aged at 37° C. for four days, and administered to the lateral ventricle of each mouse in an amount of 9 nmol/6 μl/mouse (the administration method is referred to “Brain Research”, Vol. 706, pp. 181-193 (1996)). […] The mice (10 heads) in the remaining one group were intraperitoneally administered with a sterilized 10% maltose solution (pyrogen-free) once a day up to the 8th day in an amount of 0.3 ml/mouse (control). On the 8th day after the administration, novel object recognition test (see, Japanese Patent Kokai No. 2008-193941) was performed and the average discrimination index (the ratio of prolonged seeking time for novel object to the total seeking time) as a cognitive function index were shown in Table 26. On the 9th day after the administration, the brain of the mice was anatomically isolated, prepared into tissue samples in conventional manner. Depositions of aggregation of amyloid fragment were observed by staining with Congo red or thioflavin T, and degeneration or defect of hippocampal pyramidal cells concerned with cognitive function. The degeneration or the defect of hippocampal pyramidal cells was evaluated by 4-point grade score, by regarding the condition of the control without administration of amyloid β fragment as “none (O)”, “slight (1)”, “moderate (2)”, and “sever (3)”, and the average scores of 10 mice are shown in Table 20.
An experiment apparatus (a glass box of 30 cm in depth, 45 cm in width, and 30 cm in height) and two kinds of objects to be memorized by mice were provided. On the day before the test, the mice were allowed to seek freely in the experiment apparatus with no seeking object for 10 minutes for acclimation. On the test day, the following test was performed twice at an interval of 60 minutes. In the first trial, the same two objects were placed in the apparatus at its both ends, and the mouse was allowed to seek freely for 10 minutes. On the second trial, one of the objects used in the first test was replaced with a different kind of object, and then the mouse was allowed to seek freely for five minutes. In each experiment, when the mouse brought its muffle close to the object within 1-cm apart from the object, or made its muffle or whiskers to contact with the object, the mouse was judged to have a seeking behavior, and the seeking time thereof was measured. The object discrimination index [={(seeking time for novel object)−(seeking time for memorized object)}/{(seeking time of novel object)+(seeking time of memorized object)}] was calculated. The object discrimination index means the ratio of an increased seeking time for novel object to the total seeking time, and the ratio becomes larger when the memory of the once sought object was more strongly held, and it becomes smaller when the memory was more weakly held.

[3] = final concentration of compound 200 ng/ml
[4] = final concentration of compound 400 ng/ml
[5] = final concentration of compound 800 ng/ml
[6] = final concentration of compound 1600 ng/ml
[7] = compound concentration 80 ng/ml
[8] = compound concentration 400 ng/ml
[9] = compound concentration 2000 ng/ml
[10] = compound concentration 10000 ng/ml

Row | SMILES | Time of falling from rotarod [1] | Evaluation B: Neurite-outgrowth action (PC12-HS cells) | Object discrimination index [2] | Rate of cells exhibiting neurite outgrowth (%) (PC12-HS cells; [3]) | Rate of cells exhibiting neurite outgrowth (%) (PC12-HS cells; [4]) | Rate of cells exhibiting neurite outgrowth (%) (PC12-HS cells; [5]) | Rate of cells exhibiting neurite outgrowth (%) (PC12-HS cells; [6]) | Action on neurite outgrowth (%) (PC12-HS cells; [7]) | Action on neurite outgrowth (%) (PC12-HS cells; [8]) | Action on neurite outgrowth (%) (PC12-HS cells; [9]) | Action on neurite outgrowth (%) (PC12-HS cells; [10])
1 | COc1ccc2oc(/C=C/c3ccc(N(C)C)cc3)[n+](C)c2c1 [NK-1516] | 42.4 ± 6.3 s | ∘ (The test sample with a neurite outgrowth rate of 30% or higher was judged to be equivalent or more (∘) compared with NK-4) | 0.4 |  |  |  |  |  |  |  | 
2 | CC[n+]1ccccc1/C=C/c1ccc(N(C)C)cc1 [NK-557] | 39.9 ± 5.1 s | ∘ (The test sample with a neurite outgrowth rate of 30% or higher was judged to be equivalent or more (∘) compared with NK-4) | 0.4 | 10> % | 20 ± 2% | 43 ± 5% | 84 ± 42% |  |  |  | 
3 | CCN1/C(=C/C=C(/C=C/c2sc3ccccc3[n+]2CC)c2sc3ccccc3[n+]2CC)Sc2ccccc21.[I-].[I-] [NK-100] | 61.9 ± 9.4 s | ∘ (The test sample with a neurite outgrowth rate of 30% or higher was judged to be equivalent or more (∘) compared with NK-4) | 0.1 | 36 ± 2% | 40 ± 8% | 52 ± 7% | 89 ± 6% |  |  |  | 
4 | CCCCCCCN1C=CC(=CC=C(C=Cc2cc[n+](CCCCCCC)c3ccccc23)c2cc[n+](CCCCCCC)c3ccccc23)c2ccccc21.[I-].[I-] [NK-28] | 69.0 ± 28 s |  | 0.2 |  |  |  |  | 38 ± 1% | 64 ± 10% | 70 ± 11% | 46 ± 20%
5 | CCCN1C=CC(=CC=C(C=Cc2cc[n+](CCC)c3ccccc23)c2cc[n+](CCC)c3ccccc23)c2ccccc21.[I-].[I-] [NK-234] |  |  |  |  |  |  |  | 24 ± 7% | 57 ± 7% | 61 ± 3% | 66 ± 20%
